In ChEMBL document CHEMBL4359836, “Synthesis and Biological Assessment of Pyrrolobenzoxazine Scaffold as a Potent Antioxidant” (J Med Chem, 2019):
Active and inactive are the calls of the source. No cut-off for these calls is given here.

Legend:
Mitochondria [1] = assay: Antioxidant activity in goat cardiac mitochondria assessed as inhibition of CuCl2/ascorbic acid-induced manganese superoxide dismutase at 16.5 uM after 1 hr by pyrogallol autoxidation method relative to control; assay type: functional, subcellular; details: Capra hircus, Heart, Mitochrondria
[2] = Antioxidant activity in pH 7.4 phosphate buffer assessed as H2O2 scavenging activity by measuring H2O2 decomposition at 1.34 to 10.72 uM by spectrophotometric analysis; assay type: functional
[3] = Antioxidant activity in pH 7.4 potassium phosphate buffer assessed as CuCl2/ascorbic acid induced hydroxyl radical scavenging activity by measuring deoxyribose degradation product formation after 20 mins by thiobarbituric acid based absorbance analysis; assay type: functional
[4] = Pro-oxidant activity in pH 7.4 potassium phosphate buffer assessed as reduction in CuCl2/ascorbic acid induced hydroxyl radical scavenging activity at > 66 uM in presence of deoxyribose by measuring deoxyribose degradation product formation after 20 mins by thiobarbituric acid based absorbance analysis
[5] = Antioxidant activity in pH 7.4 potassium phosphate buffer assessed as CuCl2/ascorbic acid induced hydroxyl radical scavenging activity by measuring trolox equivalent antioxidant capacity by measuring IC50 Trolox/IC50 test compound ratio in presence of deoxyribose by thiobarbituric acid based absorbance analysis; assay type: functional
[6] = Effect on GSH level in goat cardiac mitochondria at 8.25 to 66 uM after 1 hr by DTNB reagent based method; assay type: ADME, subcellular, Capra hircus, Heart, Mitochrondria
Mitochondria [7] = assay: Antioxidant activity in goat cardiac mitochondria assessed as inhibition of CuCl2/ascorbic acid-induced lipid peroxidation at 66 uM after 1 hr by thiobarbituric acid based UV-Visible spectrophotometric method (reference value: 60.11%); assay type: functional, subcellular; details: Capra hircus, Heart, Mitochrondria
Mitochondria [8] = assay: Antioxidant activity in goat cardiac mitochondria assessed as reversal of CuCl2/ascorbic acid-induced reduction in PDH level at 8.25 uM using sodium pyruvate as substrate after 1 hr by spectrophotometric analysis (reference value: 66.25%); assay type: functional, subcellular; set-up: scale not given: the % may be the effect or the level left; details: Capra hircus, Heart, Mitochrondria
Mitochondria [9] = assay: Antioxidant activity in goat cardiac mitochondria assessed as reversal of CuCl2/ascorbic acid-induced reduction in ICDH level at 16.5 uM using isocitrate as substrate after 1 hr (reference value: 65.58%); assay type: functional, subcellular; set-up: scale not given: the % may be the effect or the level left; details: Capra hircus, Heart, Mitochrondria
Mitochondria [10] = assay: Antioxidant activity in goat cardiac mitochondria assessed as reversal of CuCl2/ascorbic acid-induced reduction in SDH level at 33 uM using succinate as substrate after 1 hr by spectrophotometric analysis relative to control; assay type: functional, subcellular; details: Capra hircus, Heart, Mitochrondria
[11] = Inhibition of PDH in goat cardiac mitochondria assessed as effect on Vmax at 66 uM using sodium pyruvate as substrate after 1 hr by Lineweaver-Burk double reciprocal plot analysis; set-up: species or system Capra hircus, Heart
Capra hircus [12] = organism: Capra hircus; assay: Effect on alpha-ketoglutarate dehydrogenase in goat cardiac mitochondria assessed as reversal of CuCl2/ascorbic acid induced reduction in Vmax at 66 uM using alpha-ketoglutarate as substrate by Lineweaver-Burk double reciprocal plot analysis; details: Heart
Capra hircus [13] = organism: Capra hircus; assay: Effect on succinate dehydrogenase in goat cardiac mitochondria assessed as reversal of CuCl2/ascorbic acid induced reduction in Vmax at 66 uM using succinate as substrate after 1 hr by Lineweaver-Burk double reciprocal plot analysis; details: Heart
Capra hircus [14] = organism: Capra hircus; assay: Effect on succinate dehydrogenase in goat cardiac mitochondria assessed as reversal of CuCl2/ascorbic acid induced reduction in Km at 66 uM using succinate as substrate after 1 hr by Lineweaver-Burk double reciprocal plot analysis; details: Heart
[15] = Effect on intactness in goat cardiac mitochondria at 66 uM after 1 hr by Janus green-B staining based confocal microscopic method; assay type: ADME, subcellular, Capra hircus, Heart, Mitochrondria
Mitochondria [16] = assay: Protective activity against CuCl2/ascorbic acid-induced oxidative damage in goat cardiac mitochondria assessed as reversal of CuCl2/ascorbic acid-induced reduction in fluorescence intensity at 66 uM after 1 hr by Janus green-B staining based confocal microscopic method relative to control; assay type: functional, subcellular; details: Capra hircus, Heart, Mitochrondria
Mitochondria [17] = assay: Protective activity against CuCl2/ascorbic acid-induced apoptotic alteration in goat cardiac mitochondria assessed as reversal of CuCl2/ascorbic acid-induced reduction in cytochrome c oxidase activity at 16.5 uM incubated for 1 hr and measured at 10 secs time interval for 90 secs by spectrophotometric analysis relative to control; assay type: functional, subcellular; details: Capra hircus, Heart, Mitochrondria
[18] = Effect on cytochrome c oxidoreductase activity in goat cardiac mitochondria at 8.25 to 66 uM incubated for 1 hr and measured at 10 secs time interval for 90 secs by spectrophotometric analysis; assay type: ADME, subcellular, Capra hircus, Heart, Mitochrondria
Mitochondria [19] = assay: Protective activity in goat cardiac mitochondria assessed as reduction in CuCl2/ascorbic acid-induced calcium accumulation at 66 uM after 60 min (reference value: 25.32%); assay type: functional, subcellular; set-up: scale not given: the % may be the effect or the level left; details: Capra hircus, Heart, Mitochrondria
[20] = Toxicity in goat cardiac mitochondria assessed as effect on calcium accumulation at 66 uM after 60 mins by calcein AM dye-based flow cytometric analysis; assay type: subcellular, Capra hircus, Heart, Mitochrondria; details: 1 h
Mitochondria [21] = assay: Protection against CuCl2/ascorbic acid-induced depolarization of goat cardiac mitochondria at 66 uM after 60 mins by calcein AM dye-based flow cytometric analysis; assay type: functional, subcellular; details: Capra hircus, Heart, Mitochrondria
[22] = Binding affinity to Cu2+ assessed as binding constant K1 at 66 uM in presence of ascorbic acid/CuCl2 by isothermal titration calorimetry

CCOC(=O)c1c(-c2ccc(O)c(OC)c2)cn2c1c(=O)oc1ccccc12
inhibition (Mitochondria [1]): 34.1%
Activity [2]: inactive
Activity [3]: Dose-dependent effect
IC50 [3]: 11 µM
MEC [3]: 66 µM
Activity [4]: Active
Ratio IC50 [5]: 0.9
Activity [6]: Non-Toxic
inhibition (Mitochondria [7]): 36.4%
Activity (Mitochondria [8]): 49.3%
Activity (Mitochondria [9]): 75.5%
fold change (FC) (Mitochondria [10]): 3.06
inhibition (INH) [11]: Not Active
Activity (Capra hircus [12]): Active
Activity (Capra hircus [13]): Active
Activity (Capra hircus [14]): Active
Activity [15]: Non-Toxic
fold change (FC) (Mitochondria [16]): 4.42
fold change (FC) (Mitochondria [17]): 2.36
Activity [18]: Non-Toxic
Activity (Mitochondria [19]): 15%
Activity [20]: Non-Toxic
Activity (Mitochondria [21]): Active
K [22]: 8.7 ×10⁴ /M
